The source of these data is patent US20090208934A1, “PECAM-1 GENOTYPE” (The Johns Hopkins University, priority 2005, published 2009).

For assay [1], the system named is Ren (+/PM) cells. Put plainly: Ren cell aggregation assay. Particulars: 125Val plus 563Asn PECAM-1 transfected, agent added to cell suspension at two concentrations, 90 rpm, 37° C., 20 minutes, FIG. 4. The class given is cell-based. How it is done: (§1) FIG. 4 depicts the results of a Ren cell aggregation assay. About 2×10^6 of Ren cells, Ren (−), Ren (+/WT) and Ren (+/PM), were seeded in a T75 flask and cultured for 48 hours for aggregation assays. The monodispersed Ren cells suspension (10^6 cells/ml in HBSS with 1 mM CaCl2) were prepared. Next, two concentrations of anti-PECAM-1 antibody (JHS-7) (A), and human rcPECAM-1 (B) were added in. Then, cells were transfected to wells in a 24-well tissue culture tray (1 mL per well) and rotated on a gyratory shaker (at 90 rpm) at 37° C. for 20 minutes. Data are expressed as the percent of total cells present in aggregates. *P<0.05, **P<0.01.
(§2) A variation of aggregation assay of Takeichi (59) was adopted. Briefly, confluent culture of Ren cells were detached and dispersed and resuspended to about 10^6 cells/ml in HBSS (37° C.) with 1 mM CaCl2. One ml cell aliquots were transfected to wells in a 24-well plate and rotated on a gyratory shaker (At 90 rpm) at 37° C. for 20 minutes, then stopped by addition of glutaraldehyde to a final concentration of 2%. Aggregation was quantified by examining representative aliquot of equal volumes from each sample on a hemacytometer grid under phase contrast optics. Cells remaining as single cells or present in aggregates (≧3 cells clots) were counted in nine squares. Data are expressed as the percent of total cells present in aggregates.

Assay [2] has as its system Ren (+/WT) cells. Put plainly: Ren cell aggregation assay. The class given is cell-based. Conditions: wild type PECAM-1 transfected, agent added to cell suspension at two concentrations, 90 rpm, 37° C., 20 minutes, FIG. 4. As to the method:
as §1, §2

Regarding “recombinant human PECAM-1 protein: Soluble recombinant PECAM-1 (95˜98 KDa, containing only the extracellular domains), purchased from R&D Systems (Cat# ADP6C)”, the “effect on Ren cell aggregation (percent of total cells present in aggregates)” value in assay [1] and in assay [2] was “attenuated the aggregation” throughout.
